Source: BindingDB's records for doi:10.1021/acs.jmedchem.8b00990 (China Pharmaceutical University, 2019)

Assays:
[1] = Inhibition of mouse PDL1 in mouse splenocytes assessed as rescue of splenocyte effector function
[2] = Inhibition of mouse PDL2 in mouse splenocytes assessed as rescue of splenocyte effector function

- EC50 [1]: 30 nM
- EC50 [2]: 40 nM
SMILES: C[C@@H](O)[C@H](NC(=O)N[C@@H](CC(N)=O)C(=O)NNC(=O)[C@@H](N)CO)C(=O)O
